Assay results published in PubChem BioAssay (NCI).
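In this assay, cells in 96-well plates receive the compound at five concentrations for 48 hours. Endpoints are linearly interpolated between the surrounding concentrations. At the GI50, growth is halved. TGI denotes the concentration required for complete inhibition of growth.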

Assays:
Experiment in all cases: NCI tumour cell line growth inhibition, 48 h
786-0 renal = test system: 786-0 renal
A498 renal = test system: A498 renal
A549 NSCLC = test system: A549 NSCLC
ACHN renal = test system: ACHN renal
BT-549 breast = test system: BT-549 breast
CAKI-1 renal = test system: CAKI-1 renal
CCRF-CEM leukemia = test system: CCRF-CEM leukemia
COLO 205 colon = test system: COLO 205 colon
DU-145 prostate = test system: DU-145 prostate
EKVX NSCLC = test system: EKVX NSCLC
HCC-2998 colon = test system: HCC-2998 colon
HCT-116 colon = test system: HCT-116 colon
HCT-15 colon = test system: HCT-15 colon
HL-60(TB) leukemia = test system: HL-60(TB) leukemia
HOP-62 NSCLC = test system: HOP-62 NSCLC
HOP-92 NSCLC = test system: HOP-92 NSCLC
HS 578T breast = test system: HS 578T breast
HT29 colon = test system: HT29 colon
IGROV1 ovarian = test system: IGROV1 ovarian
K-562 leukemia = test system: K-562 leukemia
KM12 colon = test system: KM12 colon
LOX IMVI melanoma = test system: LOX IMVI melanoma
M14 melanoma = test system: M14 melanoma
MCF7 breast = test system: MCF7 breast
MDA-MB-231 breast = test system: MDA-MB-231 breast
MDA-MB-435 = test system: MDA-MB-435
MOLT-4 leukemia = test system: MOLT-4 leukemia
NCI-H226 lung = test system: NCI-H226 lung

Nc1nc(/C=C\c2ccc([N+](=O)[O-])o2)nc(N2CCN(c3ccccc3)CC2)n1
GI50 (786-0 renal): 5.5 µM | TGI (786-0 renal): 25.8 µM | GI50 (A498 renal): 21.5 µM | TGI (A498 renal): 49.4 µM | GI50 (A549 NSCLC): 19.9 µM | TGI (A549 NSCLC): 86.5 µM | GI50 (ACHN renal): 4.45 µM | TGI (ACHN renal): 21.6 µM | GI50 (BT-549 breast): 15.7 µM | TGI (BT-549 breast): > 100 µM | GI50 (CAKI-1 renal): 3.5 µM | TGI (CAKI-1 renal): 10.8 µM | GI50 (CCRF-CEM leukemia): 8.01 µM | TGI (CCRF-CEM leukemia): 82.3 µM | GI50 (COLO 205 colon): 2.88 µM | TGI (COLO 205 colon): 21.9 µM | GI50 (DU-145 prostate): 3.9 µM | TGI (DU-145 prostate): 41.4 µM | GI50 (EKVX NSCLC): 23.1 µM | TGI (EKVX NSCLC): > 100 µM | GI50 (HCC-2998 colon): 10.1 µM | TGI (HCC-2998 colon): 25.8 µM | GI50 (HCT-116 colon): 2.61 µM | TGI (HCT-116 colon): 12.2 µM | GI50 (HCT-15 colon): 2.77 µM | TGI (HCT-15 colon): 11.9 µM | GI50 (HL-60(TB) leukemia): 7.73 µM | TGI (HL-60(TB) leukemia): 61.8 µM | GI50 (HOP-62 NSCLC): 17.5 µM | TGI (HOP-62 NSCLC): 51.3 µM | GI50 (HOP-92 NSCLC): 6.86 µM | TGI (HOP-92 NSCLC): 44.3 µM | GI50 (HS 578T breast): 25.3 µM | TGI (HS 578T breast): 93 µM | GI50 (HT29 colon): 13.7 µM | TGI (HT29 colon): 55.9 µM | GI50 (IGROV1 ovarian): 5.31 µM | TGI (IGROV1 ovarian): 32.3 µM | GI50 (K-562 leukemia): 4.63 µM | TGI (K-562 leukemia): 26.7 µM | GI50 (KM12 colon): 11.5 µM | TGI (KM12 colon): 62.9 µM | GI50 (LOX IMVI melanoma): 3.49 µM | TGI (LOX IMVI melanoma): 21.2 µM | GI50 (M14 melanoma): 4.01 µM | TGI (M14 melanoma): 26.7 µM | GI50 (MCF7 breast): 3.07 µM | TGI (MCF7 breast): 29.1 µM | GI50 (MDA-MB-231 breast): 3.51 µM | TGI (MDA-MB-231 breast): 13.3 µM | GI50 (MDA-MB-435): 3.98 µM | TGI (MDA-MB-435): 26 µM | GI50 (MOLT-4 leukemia): 8.39 µM | TGI (MOLT-4 leukemia): > 100 µM | GI50 (NCI-H226 lung): 17.5 µM | TGI (NCI-H226 lung): 52.8 µM
